{"source": "ChEMBL document CHEMBL2406972", "about": "“Synthesis and antitumor activities of novel dibenzo[b,d]furan-imidazole hybrid compounds” (Eur J Med Chem, 2013)", "key": {"[1]": {"test_system": "SMMC-7721", "assay": "Cell cycle arrest in human SMMC7721 cells assessed as accumulation at G2/M phase at 6 uM after 24 hrs using PI staining by flow cytometry (reference value: 12.84%)", "type": "functional"}, "[2]": {"test_system": "SMMC-7721", "assay": "Cell cycle arrest in human SMMC7721 cells assessed as accumulation at G1 phase after 24 hrs using PI staining by flow cytometry", "type": "functional, cell-based"}, "[3]": {"test_system": "SMMC-7721", "assay": "Cell cycle arrest in human SMMC7721 cells assessed as accumulation at G2/M phase at 3 uM after 24 hrs using PI staining by flow cytometry (reference value: 12.84%)", "type": "functional"}, "[4]": {"test_system": "SMMC-7721", "assay": "Cell cycle arrest in human SMMC7721 cells assessed as accumulation at S phase at 6 uM after 24 hrs using PI staining by flow cytometry (reference value: 24.41%)", "type": "functional"}, "[5]": {"test_system": "SMMC-7721", "assay": "Cell cycle arrest in human SMMC7721 cells assessed as accumulation at S phase at 3 uM after 24 hrs using PI staining by flow cytometry (reference value: 24.41%)", "type": "functional"}, "[6]": {"test_system": "SMMC-7721", "assay": "Cell cycle arrest in human SMMC7721 cells assessed as accumulation at G1 phase at 6 uM after 24 hrs using PI staining by flow cytometry (reference value: 60.29%)", "type": "functional"}, "[7]": {"test_system": "SMMC-7721", "assay": "Cell cycle arrest in human SMMC7721 cells assessed as accumulation at G1 phase at 3 uM after 24 hrs using PI staining by flow cytometry (reference value: 60.29%)", "type": "functional"}, "[8]": {"test_system": "SMMC-7721", "assay": "Induction of apoptosis in human SMMC7721 cells at 9 uM after 48 hrs using by V-FITC/PI double-staining assay (reference value: 2.73 +/- 0.69%)", "type": "functional"}, "[9]": {"test_system": "SMMC-7721", "assay": "Induction of apoptosis in human SMMC7721 cells at 3 uM after 48 hrs using by V-FITC/PI double-staining assay (reference value: 2.73 +/- 0.69%)", "type": "functional"}, "[10]": {"test_system": "SMMC-7721", "assay": "Induction of apoptosis in human SMMC7721 cells at 6 uM after 48 hrs using by V-FITC/PI double-staining assay (reference value: 2.73 +/- 0.69%)", "type": "functional"}, "[11]": {"test_system": "SMMC-7721", "assay": "Induction of apoptosis in human SMMC7721 cells assessed as early apoptotic cells at 9 uM after 48 hrs using by V-FITC/PI double-staining assay (reference value: 1.76%)", "type": "functional"}, "[12]": {"test_system": "SMMC-7721", "assay": "Induction of apoptosis in human SMMC7721 cells assessed as late apoptotic cells at 9 uM after 48 hrs using by V-FITC/PI double-staining assay (reference value: 0.481%)", "type": "functional"}, "[13]": {"test_system": "SMMC-7721", "assay": "Induction of apoptosis in human SMMC7721 cells assessed as viable cells at 9 uM after 48 hrs using by V-FITC/PI double-staining assay (reference value: 92.9%)", "type": "functional", "settings": "SMMC-7721, 48 h, read-out: Activity"}, "[14]": {"test_system": "SMMC-7721", "assay": "Induction of apoptosis in human SMMC7721 cells assessed as necrotic cells at 9 uM after 48 hrs using by V-FITC/PI double-staining assay (reference value: 4.90%)", "type": "functional"}, "[15]": {"test_system": "SMMC-7721", "assay": "Induction of apoptosis in human SMMC7721 cells assessed as early apoptotic cells at 6 uM after 48 hrs using by V-FITC/PI double-staining assay (reference value: 1.76%)", "type": "functional"}, "[16]": {"test_system": "SMMC-7721", "assay": "Induction of apoptosis in human SMMC7721 cells assessed as late apoptotic cells at 6 uM after 48 hrs using by V-FITC/PI double-staining assay (reference value: 0.481%)", "type": "functional"}, "[17]": {"test_system": "SMMC-7721", "assay": "Induction of apoptosis in human SMMC7721 cells assessed as viable cells at 6 uM after 48 hrs using by V-FITC/PI double-staining assay (reference value: 92.9%)", "type": "functional", "settings": "SMMC-7721, 48 h, read-out: Activity"}, "[18]": {"test_system": "SMMC-7721", "assay": "Induction of apoptosis in human SMMC7721 cells assessed as necrotic cells at 6 uM after 48 hrs using by V-FITC/PI double-staining assay (reference value: 4.90%)", "type": "functional"}, "[19]": {"test_system": "SMMC-7721", "assay": "Induction of apoptosis in human SMMC7721 cells assessed as early apoptotic cells at 3 uM after 48 hrs using by V-FITC/PI double-staining assay (reference value: 1.76%)", "type": "functional"}, "[20]": {"test_system": "SMMC-7721", "assay": "Induction of apoptosis in human SMMC7721 cells assessed as late apoptotic cells at 3 uM after 48 hrs using by V-FITC/PI double-staining assay (reference value: 0.481%)", "type": "functional"}, "[21]": {"test_system": "SMMC-7721", "assay": "Induction of apoptosis in human SMMC7721 cells assessed as viable cells at 3 uM after 48 hrs using by V-FITC/PI double-staining assay (reference value: 92.9%)", "type": "functional", "settings": "SMMC-7721, 48 h, read-out: Activity"}, "[22]": {"test_system": "SMMC-7721", "assay": "Induction of apoptosis in human SMMC7721 cells assessed as necrotic cells at 3 uM after 48 hrs using by V-FITC/PI double-staining assay (reference value: 4.90%)", "type": "functional"}, "[23]": {"test_system": "SMMC-7721", "assay": "Cytotoxicity against human SMMC7721 cells after 48 hrs by MTT assay", "type": "functional, cell-based", "settings": "SMMC-7721, 48 h"}, "[24]": {"test_system": "SW480", "assay": "Cytotoxicity against human SW480 cells after 48 hrs by MTT assay", "type": "functional, cell-based", "settings": "SW480, 48 h"}, "[25]": {"test_system": "A549", "assay": "Cytotoxicity against human A549 cells after 48 hrs by MTT assay", "type": "functional, cell-based", "settings": "A549, 48 h"}, "[26]": {"test_system": "MCF7", "assay": "Cytotoxicity against human MCF7 cells after 48 hrs by MTT assay", "type": "functional, cell-based", "settings": "MCF7, 48 h"}, "[27]": {"test_system": "HL-60", "assay": "Cytotoxicity against human HL60 cells after 48 hrs by MTT assay", "type": "functional, cell-based", "settings": "HL-60, 48 h"}}, "data": [{"smiles": "O=C(C[n+]1cn(C(c2ccccc2)c2ccc3oc4ccccc4c3c2)c2ccccc21)c1ccc2ccccc2c1.[Br-]", "note": "(configuration not stated)", "values": [{"measurement": "Activity", "setting": "[1]", "value": 0.75, "unit": "%"}, {"measurement": "Activity", "setting": "[2]", "value": "Dose-dependent effect"}, {"measurement": "Activity", "setting": "[3]", "value": 4.96, "unit": "%"}, {"measurement": "Activity", "setting": "[4]", "value": 17.8, "unit": "%"}, {"measurement": "Activity", "setting": "[5]", "value": 26.8, "unit": "%"}, {"measurement": "Activity", "setting": "[6]", "value": 80.14, "unit": "%"}, {"measurement": "Activity", "setting": "[7]", "value": 67.74, "unit": "%"}, {"measurement": "Activity", "setting": "[8]", "value": 50.8, "unit": "%"}, {"measurement": "Activity", "setting": "[9]", "value": 7.6, "unit": "%"}, {"measurement": "Activity", "setting": "[10]", "value": 43.6, "unit": "%"}, {"measurement": "Activity", "setting": "[11]", "value": 11.9, "unit": "%"}, {"measurement": "Activity", "setting": "[12]", "value": 40.1, "unit": "%"}, {"measurement": "viability at 9 µM", "setting": "[13]", "value": 39.2, "unit": "%"}, {"measurement": "Activity", "setting": "[14]", "value": 8.76, "unit": "%"}, {"measurement": "Activity", "setting": "[15]", "value": 28.6, "unit": "%"}, {"measurement": "Activity", "setting": "[16]", "value": 13.8, "unit": "%"}, {"measurement": "viability at 6 µM", "setting": "[17]", "value": 53.4, "unit": "%"}, {"measurement": "Activity", "setting": "[18]", "value": 4.21, "unit": "%"}, {"measurement": "Activity", "setting": "[19]", "value": 3.46, "unit": "%"}, {"measurement": "Activity", "setting": "[20]", "value": 5.37, "unit": "%"}, {"measurement": "viability at 3 µM", "setting": "[21]", "value": 90.1, "unit": "%"}, {"measurement": "Activity", "setting": "[22]", "value": 1.06, "unit": "%"}, {"measurement": "IC50", "setting": "[23]", "value": 2.86, "unit": "µM"}, {"measurement": "IC50", "setting": "[24]", "value": 3.59, "unit": "µM"}, {"measurement": "IC50", "setting": "[25]", "value": 3.54, "unit": "µM"}, {"measurement": "IC50", "setting": "[26]", "value": 1.04, "unit": "µM"}, {"measurement": "IC50", "setting": "[27]", "value": 0.93, "unit": "µM"}]}, {"smiles": "O=C(C[n+]1ccn(C(c2ccccc2)c2ccc3oc4ccccc4c3c2)c1)c1ccc(F)cc1", "note": "(configuration not stated)", "values": [{"measurement": "IC50", "setting": "[23]", "value": 14.5, "unit": "µM"}, {"measurement": "IC50", "setting": "[24]", "value": 5.16, "unit": "µM"}, {"measurement": "IC50", "setting": "[25]", "value": 10.2, "unit": "µM"}, {"measurement": "IC50", "setting": "[26]", "value": 4, "unit": "µM"}, {"measurement": "IC50", "setting": "[27]", "value": 3, "unit": "µM"}]}, {"smiles": "Cc1nccn1C(c1ccccc1)c1ccc2oc3ccccc3c2c1", "note": "(configuration not stated)", "values": [{"measurement": "IC50", "setting": "[23]", "value": 30.2, "unit": "µM"}, {"measurement": "IC50", "setting": "[24]", "value": "> 40", "unit": "µM"}, {"measurement": "IC50", "setting": "[25]", "value": 18.2, "unit": "µM"}, {"measurement": "IC50", "setting": "[26]", "value": 23.5, "unit": "µM"}, {"measurement": "IC50", "setting": "[27]", "value": 14.5, "unit": "µM"}]}, {"smiles": "COc1ccc(C(=O)C[n+]2ccn(C(c3ccccc3)c3ccc4oc5ccccc5c4c3)c2)cc1", "note": "(configuration not stated)", "values": [{"measurement": "IC50", "setting": "[23]", "value": 5.59, "unit": "µM"}, {"measurement": "IC50", "setting": "[24]", "value": 3.76, "unit": "µM"}, {"measurement": "IC50", "setting": "[25]", "value": 7.27, "unit": "µM"}, {"measurement": "IC50", "setting": "[26]", "value": 4.12, "unit": "µM"}, {"measurement": "IC50", "setting": "[27]", "value": 2.09, "unit": "µM"}]}, {"smiles": "COc1ccc(C(=O)C[n+]2cn(C(C)c3ccc4oc5ccccc5c4c3)c3ccccc32)cc1", "note": "(configuration not stated)", "values": [{"measurement": "IC50", "setting": "[23]", "value": 2.95, "unit": "µM"}, {"measurement": "IC50", "setting": "[24]", "value": 3.18, "unit": "µM"}, {"measurement": "IC50", "setting": "[25]", "value": 5.95, "unit": "µM"}, {"measurement": "IC50", "setting": "[26]", "value": 3.42, "unit": "µM"}, {"measurement": "IC50", "setting": "[27]", "value": 2.05, "unit": "µM"}]}, {"smiles": "CCCC[n+]1ccn(C(c2ccccc2)c2ccc3oc4ccccc4c3c2)c1C", "note": "(configuration not stated)", "values": [{"measurement": "IC50", "setting": "[23]", "value": 13.1, "unit": "µM"}, {"measurement": "IC50", "setting": "[24]", "value": 28.4, "unit": "µM"}, {"measurement": "IC50", "setting": "[25]", "value": 21.4, "unit": "µM"}, {"measurement": "IC50", "setting": "[26]", "value": 11.9, "unit": "µM"}, {"measurement": "IC50", "setting": "[27]", "value": 3.81, "unit": "µM"}]}, {"smiles": "CC(c1ccc2oc3ccccc3c2c1)n1c[n+](Cc2ccc([N+](=O)[O-])cc2)c2ccccc21", "note": "(configuration not stated)", "values": [{"measurement": "IC50", "setting": "[23]", "value": 18.4, "unit": "µM"}, {"measurement": "IC50", "setting": "[24]", "value": 13.4, "unit": "µM"}, {"measurement": "IC50", "setting": "[25]", "value": 32.3, "unit": "µM"}, {"measurement": "IC50", "setting": "[26]", "value": 13.8, "unit": "µM"}, {"measurement": "IC50", "setting": "[27]", "value": 5.93, "unit": "µM"}]}]}
